Test results reported in the supplement of paper PMC10627819.
Converted amounts (≈) assume the structure as drawn.

Key:
S. aureus Newman [1] = test system: S. aureus Newman
S. pneumoniae D39V [2] = test system: S. pneumoniae D39V
S. aureus DSM 20231 [3] = test system: S. aureus DSM 20231
S. aureus Newman [4] = assay: fitness (endpoint OD595 vs no drug) (fraction); higher = more growth
Outline: (§1)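 Bacterial growth was followed in 384-well plates seeded at OD595 0.01, with 30 µl per well, or 55 µl for S. pneumoniae, in TSB, LB Lennox or CY at 37 °C. OD595 was read every 30 min for 14 h, and each reading had the first reading subtracted as background. Fitness is the background-corrected optical density at entry into stationary phase divided by the robust mean of the no-drug control wells. This ratio is capped at 1.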

S. pneumoniae D39V [5] = assay: as above
Outline: as §1

S. aureus DSM 20231 [6] = assay: as above
Outline: as §1

B. subtilis 168 [7] = test system: B. subtilis 168
B. subtilis 168 [8] = assay: fitness (endpoint OD595 vs no drug) (fraction); higher = more growth
Outline: as §1

B. subtilis 168 [9] = assay: Bliss interaction score (quartile over a dose matrix) (fitness difference); higher = more antagonism (negative = synergy)
Outline: (§2)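 The Bliss score takes observed fitness and subtracts the expected fitness, calculated as a product of single-drug fitness values. Those single-drug values were inferred from the combination data. Fitness is OD595 at entry into stationary phase divided by the plate's robust no-drug mean, capped at 1, and the score is summarised by quartiles across technical, biological and donor/recipient replicates.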

S. aureus Newman [10] = assay: as above
Outline: as §2

S. pneumoniae D39V [11] = assay: as above
Outline: as §2

S. aureus DSM 20231 [12] = assay: as above
Outline: as §2
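For Bliss interaction score (quartile over a dose matrix) in this document: first quartile when negative (synergy) and third quartile when positive (antagonism).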

CC1(C)S[C@@H]2[C@H](NC(=O)[C@H](N)c3ccc(O)cc3)C(=O)N2[C@H]1C(=O)O [Amoxicillin]
Conditions	MIC [µg/mL]
S. aureus DSM 20231 [3]	0.556 (≈ 1.52 µM)
S. aureus Newman [1]	0.25 (≈ 0.684 µM)
S. pneumoniae D39V [2]	0.004 (≈ 0.0109 µM)

fitness
Conditions	0.0008 µg/mL	0.0015 µg/mL	0.003 µg/mL	0.0625 µg/mL	0.125 µg/mL	0.25 µg/mL	0.5 µg/mL
S. aureus DSM 20231 [6]	–	–	–	0.606	0.504	0.0502	0.0082
S. aureus Newman [4]	–	–	–	0.896	0.878	0.85	0.865
S. pneumoniae D39V [5]	0.972	0.945	0.923	–	–	–	–

CO/N=C(\C(=O)N[C@@H]1C(=O)N2C(C(=O)[O-])=C(C[N+]3(C)CCCC3)CS[C@H]12)c1csc(N)n1 [Cefepime]
Conditions	MIC [µg/mL]
B. subtilis 168 [7]	0.25 (≈ 0.52 µM)
S. aureus DSM 20231 [3]	0.556 (≈ 1.16 µM)
S. aureus Newman [1]	0.556 (≈ 1.16 µM)
S. pneumoniae D39V [2]	0.031 (≈ 0.0645 µM)

Conditions	fitness
B. subtilis 168 [8], 0.0625 µg/mL	0.872
B. subtilis 168 [8], 0.125 µg/mL	0.729
B. subtilis 168 [8], 0.25 µg/mL	0.432
S. aureus DSM 20231 [6], 0.125 µg/mL	≥ 1
S. aureus DSM 20231 [6], 0.25 µg/mL	0.996
S. aureus DSM 20231 [6], 0.5 µg/mL	0.935
S. aureus Newman [4], 0.125 µg/mL	0.924
S. aureus Newman [4], 0.25 µg/mL	0.872
S. aureus Newman [4], 0.5 µg/mL	0.784
S. pneumoniae D39V [5], 0.0078 µg/mL	≥ 1
S. pneumoniae D39V [5], 0.0155 µg/mL	0.993
S. pneumoniae D39V [5], 0.031 µg/mL	0.696

CCCCCCCCCC(=O)N[C@@H](Cc1c[nH]c2ccccc12)C(=O)N[C@H](CC(N)=O)C(=O)N[C@@H](CC(=O)O)C(=O)N[C@@H]1C(=O)NCC(=O)N[C@@H](CCCN)C(=O)N[C@@H](CC(=O)O)C(=O)N[C@H](C)C(=O)N[C@@H](CC(=O)O)C(=O)NCC(=O)N[C@H](CO)C(=O)N[C@@H]([C@H](C)CC(=O)O)C(=O)N[C@@H](CC(=O)c2ccccc2N)C(=O)O[C@@H]1C [Daptomycin]
Conditions	MIC [µg/mL]
B. subtilis 168 [7]	0.5 (≈ 0.309 µM)
S. aureus DSM 20231 [3]	2 (≈ 1.23 µM)
S. aureus Newman [1]	1 (≈ 0.617 µM)
S. pneumoniae D39V [2]	8 (≈ 4.94 µM)

fitness
Conditions	0.125 µg/mL	0.25 µg/mL	0.5 µg/mL	1 µg/mL	2 µg/mL	4 µg/mL
B. subtilis 168 [8]	0.941	0.944	0.934	–	–	–
S. aureus DSM 20231 [6]	0.998	0.989	≥ 1	≥ 1	≥ 1	–
S. aureus Newman [4]	0.954	0.964	0.964	0.98	≥ 1	–
S. pneumoniae D39V [5]	–	–	–	0.875	0.889	0.853

CCCCCCCCCC(=O)N[C@@H](Cc1c[nH]c2ccccc12)C(=O)N[C@H](CC(N)=O)C(=O)N[C@@H](CC(=O)O)C(=O)N[C@@H]1C(=O)NCC(=O)N[C@@H](CCCN)C(=O)N[C@@H](CC(=O)O)C(=O)N[C@H](C)C(=O)N[C@@H](CC(=O)O)C(=O)NCC(=O)N[C@H](CO)C(=O)N[C@@H]([C@H](C)CC(=O)O)C(=O)N[C@@H](CC(=O)c2ccccc2N)C(=O)O[C@@H]1C [Daptomycin] + O=C(O[C@@H]1Cc2c(O)cc(O)cc2O[C@@H]1c1cc(O)c(O)c(O)c1)c1cc(O)c(O)c(O)c1 [EGCG]
Conditions	Bliss interaction score
B. subtilis 168 [9]	-0.0882
S. aureus DSM 20231 [12]	-0.0959
S. aureus Newman [10]	0.0602
S. pneumoniae D39V [11]	0.0768

fitness
Conditions	partner 6.25 µg/mL	partner 12.5 µg/mL	partner 25 µg/mL	partner 50 µg/mL
B. subtilis 168 [8], first compound 0.125 µg/mL	0.906	–	0.305	–
B. subtilis 168 [8], first compound 0.25 µg/mL	0.895	0.719	–	–
B. subtilis 168 [8], first compound 0.5 µg/mL	0.838	0.598	–	–
S. aureus DSM 20231 [6], first compound 0.5 µg/mL	–	0.814	0.778	0.808
S. aureus DSM 20231 [6], first compound 1 µg/mL	–	0.788	0.721	0.699
S. aureus DSM 20231 [6], first compound 2 µg/mL	–	0.728	0.736	–
S. aureus Newman [4], first compound 0.125 µg/mL	–	0.817	0.79	0.742
S. aureus Newman [4], first compound 0.25 µg/mL	–	0.828	0.815	0.754
S. aureus Newman [4], first compound 0.5 µg/mL	–	0.861	0.843	0.742
S. pneumoniae D39V [5], first compound 1 µg/mL	–	0.909	0.95	–
S. pneumoniae D39V [5], first compound 2 µg/mL	–	0.921	0.906	0.971
S. pneumoniae D39V [5], first compound 4 µg/mL	–	–	–	0.832

B. subtilis 168 [8], first compound 1 µg/mL, one replicate
Conditions	fitness
partner 6.25 µg/mL	0.665
partner 12.5 µg/mL	0.399
partner 25 µg/mL	0.0311

C[C@H]1COc2c(N3CCN(C)CC3)c(F)cc3c(=O)c(C(=O)O)cn1c23 [Levofloxacin]
Conditions	MIC [µg/mL]
S. aureus DSM 20231 [3]	0.15 (≈ 0.415 µM)
S. pneumoniae D39V [2]	2 (≈ 5.53 µM)

fitness
Conditions	0.002 µg/mL	0.0039 µg/mL	0.0078 µg/mL	0.0312 µg/mL	0.0625 µg/mL	0.125 µg/mL	0.2 µg/mL	0.4 µg/mL	0.8 µg/mL
B. subtilis 168 [8]	0.932	0.928	0.916	0.0401	0.0424	0.0419	–	–	–
S. pneumoniae D39V [5]	–	–	–	–	–	–	0.931	0.789	0.468

CN(C)C(=O)C(CCN1CCC(O)(c2ccc(Cl)cc2)CC1)(c1ccccc1)c1ccccc1 [Loperamide]
Conditions	MIC [µg/mL]
B. subtilis 168 [7]	100 (≈ 210 µM)
S. aureus DSM 20231 [3]	120 (≈ 252 µM)
S. aureus Newman [1]	120 (≈ 252 µM)
S. pneumoniae D39V [2]	200 (≈ 419 µM)

fitness
Conditions	20 µg/mL	25 µg/mL	40 µg/mL	50 µg/mL	80 µg/mL	100 µg/mL
B. subtilis 168 [8]	–	0.651	–	0.254	–	0.03
S. aureus DSM 20231 [6]	–	≥ 1	–	0.925	–	0.0918
S. pneumoniae D39V [5]	≥ 1	–	≥ 1	–	0.869	–

CCN(CC)CCOC(=O)c1ccc(N)cc1 [Procaine]
Conditions	MIC [µg/mL]
B. subtilis 168 [7]	> 342
S. aureus DSM 20231 [3]	> 342
S. aureus Newman [1]	> 342
S. pneumoniae D39V [2]	> 342

fitness
Conditions	B. subtilis 168 [8]	S. aureus DSM 20231 [6]	S. aureus Newman [4]	S. pneumoniae D39V [5]
85.5 µg/mL	0.922	0.999	0.982	0.995
171 µg/mL	0.918	0.998	0.972	≥ 1
342 µg/mL	0.91	0.999	0.95	0.977

CCN(CC)CCOC(=O)c1ccc(N)cc1 [Procaine] + CC1=C\[C@@H](O)CC(=O)Cc2nc(co2)C(=O)N2CCC=C2C(=O)O[C@H](C(C)C)[C@H](C)/C=C/C(=O)NC\C=C\1 [Virginiamycin M1]
Conditions	Bliss interaction score
B. subtilis 168 [9]	-0.0324
S. aureus DSM 20231 [12]	-0.0838
S. aureus Newman [10]	0.0179
S. pneumoniae D39V [11]	0.036

fitness
Conditions	first compound 85.5 µg/mL	first compound 171 µg/mL	first compound 342 µg/mL
B. subtilis 168 [8], partner 0.0625 µg/mL	0.957	0.962	0.904
B. subtilis 168 [8], partner 0.125 µg/mL	0.88	0.92	0.881
B. subtilis 168 [8], partner 0.25 µg/mL	0.905	0.892	0.882
S. aureus DSM 20231 [6], partner 0.0625 µg/mL	–	0.976	0.872
S. aureus DSM 20231 [6], partner 0.125 µg/mL	–	≥ 1	≥ 1
S. aureus DSM 20231 [6], partner 0.25 µg/mL	0.94	0.906	0.878
S. pneumoniae D39V [5], partner 0.5 µg/mL	≥ 1	≥ 1	≥ 1
S. pneumoniae D39V [5], partner 1 µg/mL	≥ 1	≥ 1	≥ 1
S. pneumoniae D39V [5], partner 2 µg/mL	0.948	0.926	0.951

fitness, one replicate
Conditions	first compound 85.5 µg/mL	first compound 171 µg/mL	first compound 342 µg/mL
S. aureus DSM 20231 [6], partner 0.5 µg/mL	0.82	0.747	0.842
S. aureus DSM 20231 [6], partner 1 µg/mL	0.726	0.774	0.779
S. aureus Newman [4], partner 0.0625 µg/mL	≥ 1	≥ 1	≥ 1
S. aureus Newman [4], partner 0.125 µg/mL	≥ 1	≥ 1	≥ 1
S. aureus Newman [4], partner 0.25 µg/mL	≥ 1	≥ 1	≥ 1
S. aureus Newman [4], partner 0.5 µg/mL	0.851	0.766	0.795
S. aureus Newman [4], partner 1 µg/mL	0.977	≥ 1	0.968
S. aureus Newman [4], partner 2 µg/mL	0.913	0.91	0.812
S. pneumoniae D39V [5], partner 0.15 µg/mL	0.976	0.936	0.971
S. pneumoniae D39V [5], partner 0.3 µg/mL	0.983	0.941	0.934

CCN(CC)CCOC(=O)c1ccc(N)cc1 [Procaine] + CN1C2=CC=CC=C2N=C3C1=CC=CC3=O [Pyocyanin]
Conditions	Bliss interaction score
B. subtilis 168 [9]	-0.0724
S. aureus DSM 20231 [12]	-0.0817
S. aureus Newman [10]	0.148
S. pneumoniae D39V [11]	-0.0685

fitness
Conditions	first compound 85.5 µg/mL	first compound 171 µg/mL	first compound 342 µg/mL
B. subtilis 168 [8], partner 1.25 µg/mL	0.871	0.869	0.848
B. subtilis 168 [8], partner 2.5 µg/mL	0.846	0.863	0.748
B. subtilis 168 [8], partner 5 µg/mL	0.683	0.669	0.647
S. aureus DSM 20231 [6], partner 1.25 µg/mL	0.938	≥ 1	≥ 1
S. aureus DSM 20231 [6], partner 2.5 µg/mL	0.854	0.986	≥ 1
S. aureus DSM 20231 [6], partner 5 µg/mL	0.54	0.591	0.56
S. aureus Newman [4], partner 1.25 µg/mL	0.864	0.89	0.798
S. aureus Newman [4], partner 2.5 µg/mL	0.782	0.748	0.776
S. aureus Newman [4], partner 5 µg/mL	–	0.448	–
S. pneumoniae D39V [5], partner 0.325 µg/mL	≥ 1	0.998	0.991
S. pneumoniae D39V [5], partner 0.65 µg/mL	0.975	≥ 1	0.966

S. pneumoniae D39V [5], partner 1.3 µg/mL, one replicate
Conditions	fitness
first compound 85.5 µg/mL	0.433
first compound 171 µg/mL	0.585
first compound 342 µg/mL	0.524
